Drawing on PubChem BioAssay (NCI), this text covers TGI for 6 compounds.

SMILES strings stand for the structures.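 These data come from cells grown in 96-well plates and exposed to compound for 48 hours at five concentrations. Definition used: TGI = concentration required for complete inhibition of growth.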

Test systems include HOP-18 NSCLC; KM20L2 colon; SN12K1 renal; DMS 114 small cell lung; DLD-1 colon; XF 498 CNS; P388/ADR leukemia; DMS 273 small cell lung; P388 leukemia; LXFL 529 NSCLC.
Holding throughout (test): NCI tumour cell line growth inhibition, 48 h

Take `COC(=O)[C@]1(c2ccc(N(C)C)cc2OC)C[C@@H]2CCCN(CCc3c1[nH]c1ccccc31)C2`: the TGI was more than 58.7 µM with HOP-18 NSCLC; 32.5 µM in the assay on KM20L2 colon; 34.6 µM with SN12K1 renal; 30.9 µM with DMS 114 small cell lung; more than 64.1 µM in the assay with DLD-1 colon; 34.1 µM in the assay on XF 498 CNS. Besides, the TGI in the assay with P388/ADR leukemia is 47.1 µM; in the assay with DMS 273 small cell lung, 45.1 µM; in the assay on P388 leukemia, 36 µM.
Consider `COC1=C(C)C(=O)C2=C(C1=O)C1C3CC4=C(C(=O)C(OC)=C(C)C4=O)C(CNC(=O)C(C)O)N3C(C#N)C(C2)N1C` (stereo not drawn), for which the TGI with HOP-18 NSCLC is less than 0.01 µM; in the assay on KM20L2 colon it was 3.1 µM; in the assay on SN12K1 renal, less than 0.01 µM; in the assay on DMS 114 small cell lung, less than 0.01 µM; with DLD-1 colon it was 0.372 µM; in the assay on DMS 273 small cell lung, less than 0.0111 µM.
On to `COc1cc2c(cc1Oc1c(Oc3c(O)c(OC)cc4c3C(CC(C)C)N(C)CC4)c(OC)cc3c1C(CC(C)C)N(C)CC3)C(CC(C)C)N(C)CC2` (stereo not drawn), for which the TGI in the assay on HOP-18 NSCLC was determined as 17.1 µM; in the assay with KM20L2 colon, 7.12 µM; with SN12K1 renal, 3.79 µM; in the assay with DMS 114 small cell lung, 6.52 µM; with DLD-1 colon, 14.2 µM; in the assay with P388/ADR leukemia it was 3.71 µM. The TGI in the assay with DMS 273 small cell lung was found to be 4.21 µM; in the assay with P388 leukemia, 3.62 µM.
Turning to `O=C(Nc1ccccc1Cl)c1ccc([N+](=O)[O-])cc1`, the TGI in the assay with KM20L2 colon, in the assay with DLD-1 colon, in the assay with XF 498 CNS and with DMS 273 small cell lung was more than 100 µM each time.
On to `CNC(=O)SCC(NC(=O)CCC(N)C(=O)O)C(=O)NCC(=O)O` (stereo not drawn), for which the TGI with HOP-18 NSCLC, in the assay with KM20L2 colon, in the assay with SN12K1 renal, with DMS 114 small cell lung, in the assay on DLD-1 colon and with XF 498 CNS was more than 100 µM in each case. Also, the TGI in the assay with P388/ADR leukemia, in the assay with DMS 273 small cell lung and in the assay with P388 leukemia was more than 100 µM each time.
With `C=CC(C)C1(CCCOCc2ccccc2)C(=S)N2CCC3(CC24CCCC14)OCCO3` (stereo not drawn), the TGI in the assay with HOP-18 NSCLC was more than 100 µM; in the assay with KM20L2 colon it was more than 100 µM; in the assay with LXFL 529 NSCLC, more than 100 µM; in the assay with DMS 114 small cell lung it was more than 100 µM; with DLD-1 colon, more than 100 µM; in the assay on XF 498 CNS, 52.7 µM. Also, the TGI in the assay with DMS 273 small cell lung is more than 100 µM.
